These results are taken from ChEMBL document CHEMBL1144099, “Three new antibacterial alkaloids from a marine sponge Stelletta species” (1999).

The test system of the assay is Escherichia coli. In words: Antibacterial activity against Escherichia coli at 20 ug/6 mm disk. In kind it is functional.

On to `CC(C)=CCC/C(C)=C/CC/C(C)=C/CC/C(C)=C/C(=O)NCCc1cn(CCCN)c[n+]1C.[Cl-]` [STELLETTAZOLE C], for which the “inhibition zone (IZ)” value worked out at 6.2 mm. Regarding `CC(C)=CCC/C(C)=C/CC/C(C)=C/CC(=O)NC[C@@H]1CC[N+]2(C)CCCC[C@H]12.[Cl-]` (stereo partly drawn) [STELLETTAMIDE C], the “inhibition zone (IZ)” value was 10.5 mm. As to `CC(C)=CCC/C(C)=C/CC/C(C)=C/CC/C(C)=C/C(=O)NCCc1cn(CCCNC(=N)N)c[n+]1C.[Cl-]` [STELLETTAZOLE B], the “inhibition zone (IZ)” value was found to be 6.1 mm.
